Data as given in US10444230B2, “Method and system for determination of molecular interaction parameters” (GE Healthcare Bio-Sciences AB, priority 2003, dated 2019).

Legend:
Thrombin (Sigma T 1063) = Thrombin (Sigma T 1063) (Homo sapiens, UniProt P00734); settings: ligand densities approx. 2300 and 600 RU; 10 mM PBS, 0.005% P20, 5% DMSO, 3.4 mM EDTA
[1] = target: T1, Carbonic anhydrase (Sigma C3640) (Bos taurus, UniProt P00921); test: SPR (BIACORE S51) sequential injection kinetics, inhibitors binding to immobilized carbonic anhydrase
T1 construct: purchased Sigma C3640
T1 sequence (P00921 whole entry): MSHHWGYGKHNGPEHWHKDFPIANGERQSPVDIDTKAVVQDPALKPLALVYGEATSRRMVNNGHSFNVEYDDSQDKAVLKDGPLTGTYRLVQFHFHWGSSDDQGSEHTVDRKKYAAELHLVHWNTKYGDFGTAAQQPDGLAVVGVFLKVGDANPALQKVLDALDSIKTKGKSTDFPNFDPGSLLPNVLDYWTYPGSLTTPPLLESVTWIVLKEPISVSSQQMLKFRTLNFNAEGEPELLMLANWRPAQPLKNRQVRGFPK
Description: Kinetic analysis was performed by injecting inhibitors in 10 mM PBS buffer with 0.005% P20 and 5% DMSO at a flow of 30 μl/min.

## N=C(N)c1ccc(CNC(=O)[C@@H]2CCN2C(=O)[C@H](NCC(=O)O)C2CCCCC2)cc1 [melagatran]
Thrombin (Sigma T 1063)
  ka: 2e+07 M⁻¹ s⁻¹
  kd: 0.018 s⁻¹

## NS(=O)(=O)c1ccccc1 [benzenesulfonamide]
[1]; read-out: ka
  kon: 160000 M⁻¹ s⁻¹
[1]; two ligand densities, approx. 2000 and 700 RU, 10 mM PBS, 0.005% P20, 5% DMSO
  kd: 0.14 s⁻¹
